The source of these data is ChEMBL document CHEMBL1158199, “Constituents of Ardisia japonica and their in vitro anti-HIV activity” (J Nat Prod, 1996).

In brackets after ≈: the same amount, converted by molar mass.

Data set [1] in a line: Cytotoxicity against human C8166 cells by XTT assay. The format is cell-based. Conditions: read-out: TC50 (the source's name).
Data set [2] can be described thus: Selectivity index, ratio of […] for human […] cells.
In data set [3] the test system is Human immunodeficiency virus 1. The data set can be described thus: Antiviral activity against HIV1 MN in human C8166 cells assessed as reduction of antigen gp120 production by ELISA. The format is functional, organism-based. The settings on record: Human immunodeficiency virus 1, MN. (In general: ELISA stands for enzyme-linked immunosorbent assay.)
Data set [4] deals with Human immunodeficiency virus 1. Description: Antiviral activity against HIV1 3B in human C8166 cells assessed as neutralization of virus infectivity treated prior infection measured after 60 mins at 37 degC. It counts as functional.
The nature of data set [5]: Inhibition of monoclonal antibody ADP358/HIV1 gp120 interaction at 400 mg/mL.
Data set [6] in a line: Inhibition of monoclonal antibody ADP358/HIV1 gp120 interaction at 3.2 mg/mL.
A short description of data set [7]: Inhibition of HIV1 recombinant gp120/sCD4 interaction by ELISA.
Data set [8] is described as follows: Inhibition of monoclonal antibody ADP358/HIV1 gp120 interaction at 80 mg/mL.
Data set [9] is described as follows: Inhibition of monoclonal antibody ADP358/HIV1 gp120 interaction at 16 mg/mL.
Data set [10] in a line: Inhibition of monoclonal antibody ADP358/HIV1 gp120 interaction at 20 mg/mL.
Data set [11] in a line: Inhibition of monoclonal antibody ADP358/HIV1 gp120 interaction at 500 mg/mL.
Data set [12] can be described thus: Inhibition of monoclonal antibody ADP358/HIV1 gp120 interaction at 0.8 mg/mL.
Data set [13] can be described thus: Inhibition of monoclonal antibody ADP358/HIV1 gp120 interaction at 100 mg/mL.
Data set [14] is described as follows: Inhibition of monoclonal antibody ADP358/HIV1 gp120 interaction at 4 mg/mL.

`COc1cc2c(c(OC)c1OC)[C@H]1O[C@@H](CO)[C@H](O)[C@@H](O)[C@@H]1OC2=O`: the CC50 in data set [1] amounted to 250 mg/L (≈ 702 µM). For the same molecule, in data set [2], the “Selectivity Index” value is listed as 1.25. In addition, the EC50 in data set [3] was determined as 200 mg/L (≈ 561 µM).
With `O=C1O[C@H]2[C@H](O)[C@@H](O)[C@H](CO)O[C@@H]2c2c1cc(O)c(O)c2O` [NORBERGENIN], the Activity was 99% in [4] and “Dose-dependent effect” in [7]. Also, the inhibition in data set [5] came out at 84%; in [6] it was 33%; in data set [8] it was 69%; in data set [9], 57%. In data set [1], the CC50 was over 500 mg/L. In [2], the “Selectivity Index” value is over 25. In addition, the EC50 in data set [3] worked out at 20 mg/L (≈ 63.6 µM).
`COc1c(O)cc2c(c1O)[C@@H]1O[C@H](CO)[C@@H](O)[C@H](O)[C@H]1OC2=O` [BERGENIN]: the inhibition amounted to 62% in data set [10]; 92% in data set [11]; 0% in data set [12]; 84% in data set [13]; 39% in data set [14]. Besides, the CC50 in [1] was over 1000 mg/L. The “Selectivity Index” value in data set [2] is over 25. Also, the EC50 in data set [3] was 40 mg/L (≈ 122 µM).

A word on the EC50: it is the concentration needed to bring the measured effect to its halfway point. Usually inhibition stands for the percentage by which the read-out fell short of the control. A high value points to a response far below the control.
